# According to US20080286301A1, “Treatment of diabetes” (priority 1997, published 2008):
# Entries after “also recorded” stand apart in the source; their conditions may differ.
# Tests used:
# Assay type in all cases: in vivo, human
# [1] = test system: subjects with remission phase Type I diabetes; experiment: Sustacal meal with intravenous GLIP infusion 1.2 pm/kg/min (Example 1); conditions: IV GLIP 1.2 pm/kg/min for 120 min after Sustacal meal; for gastrin levels / gastrin response: FIG. 1 Panel E
# Description: 7 subjects with remission phase Type I diabetes were studied after ingestion of a standardised meal of Sustacal (Upjohn) (delivering […]). Subjects continued their normal insulin treatment programme on the day prior to the test and, on the day of the test, omitted their morning insulin injection and arrived fasting at 8:00 am. […] Infusion was continued for 120 minutes. Blood levels of glucose, C-peptide, gastrin, glucagon and HPP were monitored by standard radioimmunoassay methods in samples taken before and at intervals during the study, up to 180 minutes. On another test day, subjects were given the Sustacal meal alone and the same analytes were similarly monitored.
# [2] = test system: subjects with remission phase Type I diabetes; experiment: Intravenous glucose infusion with intravenous GLIP (Example 2); conditions: IV GLIP 1.2 pm/kg/min for 60 min along with IV glucose 20 g over 60 min; FIG. 2
# [3] = test system: subjects with remission phase Type I diabetes; experiment: Sustacal meal with infusion of 0.75 pm/kg/min GLIP (Example 3); conditions: versus saline infusion control, FIG. 3
# Description: Four subjects with remission phase Type I diabetes were studied during infusion with 0.75 pm/kg/min-GLIP for 120 minutes after a Sustacal meal.
# The test was conducted as described in Example 1 and blood glucose and C-peptide levels were measured. On a further test day, the subjects were studied during saline infusion after a similar Sustacal meal.
# Type I diabetic subjects = experiment: Sustacal meal preceded by subcutaneous injection of 100 μg GLIP in Type I diabetics (Example 5); conditions: 100 μg GLIP sc prior to test meal
# Description: Type I diabetic subjects were studied.
# The results are shown in FIG. 5. *indicates statistically significant differences between treatments (p<0.05).
# Type 1 diabetic subject = experiment: GLIP along with insulin subcutaneously prior to Sustacal meal, post-prandial glycaemia (Example 6); conditions: 50 μg GLIP sc along with 5 units insulin (half the usual dose) prior to Sustacal meal; one subject; FIG. 6 Panel A
# Description: (§1) One Type 1 diabetic subject was given GLIP along with insulin and the effects on post-prandial glycaemia observed. The subject received 5 units of insulin and 50 μg GLIP as subcutaneous injections immediately prior to ingestion of a Sustacal meal as described in Example 1. Blood levels of GLIP were monitored by a standard radioimmunoassay method.
# normal volunteers = experiment: Sustacal meal preceded by subcutaneous injection of GLIP in normal volunteers (Example 4); conditions: 100 μg GLIP sc before Sustacal meal
# Description: Results are shown in FIG. 4. *indicates statistically significant differences between treatments (p<0.05).
# [4] = Blood levels of GLIP by radioimmunoassay after subcutaneous injection (Example 6); conditions: 50 μg GLIP sc with 5 units insulin, Type I diabetic subject; FIG. 6 Panel E
# Description: as §1
substance,measurement,setting,value
Glucagon-like peptide 1(7-36)amide [GLIP],blood levels of C-peptide,[1]; FIG. 1,prevented a significant increase in blood levels of C-peptide
same,plasma glucagon levels stimulated by the meal,[1]; FIG. 1,prevented the mean rise in plasma glucagon levels
same,secretion of pancreatic polypeptide (PP) after the meal,[1]; FIG. 1 Panel C,this response was absent
same,gastrin levels / gastrin response,[1],not significantly affected
same,gastrin levels / gastrin response,[1]; listed as CLIP,normal gastrin response
same,control of blood glucose level,[2],improved control of blood glucose level
same,C-peptide,[3]; lower dose of GLIP (0.75 pmol/kg/min) along with a meal,some increase
same,blood glucose,[3]; lower dose of GLIP (0.75 μmol/kg/min) along with a meal,some increase; also recorded: less than in the control experiment
same,blood glucose levels compared to control,Type I diabetic subjects; FIG. 5 Panel A,lowering of blood glucose levels
same,pancreatic polypeptide (HPP) levels,Type I diabetic subjects; FIG. 5 Panel D,delayed rise in pancreatic polypeptide (HPP) levels
same,insulin secretion over control levels,Type I diabetic subjects; FIG. 5 Panels B and C,no enhancement of insulin secretion over control levels
same,blood glucose after standard meal (highest level),Type 1 diabetic subject,≤ 8 mM
same,increase in blood levels of C-peptide,normal volunteers,delay in increase
same,increase in blood levels of HPP,normal volunteers,delay in increase
same,increase in blood levels of glucose,normal volunteers,delay in increase
same,increase in blood levels of insulin,normal volunteers,delay in increase
same,time to clearance from the blood,[4],about two
